Key:
Format in all cases: functional, cell-based
A549 = assay: Compound was tested for inhibition of cell growth of A-549 cells; settings: Homo sapiens
HT-29 = assay: Compound was tested for inhibition of cell growth of HT-29 cells; settings: Homo sapiens
[1] = Compound was tested for inhibition of cell growth of MEL-28 cells; settings: Homo sapiens, SK-MEL-28
P388 = assay: Compound was tested for inhibition of cell growth of P-388 cells; settings: Mus musculus
L1210 = assay: Compound was tested for inhibition of cell growth of L1210 leukemia cells; settings: Mus musculus

IC50 (A549) [µM]	IC50 (HT-29) [µM]	IC50 (P388) [µM]	IC50 (L1210) [µM]	Compound	IC50 [1] [µM]
> 28.9	> 28.9	> 28.9		COc1ccc(C(=O)Cc2cc(OC)c(OC)c(OC)c2)cc1OC	> 28.9
6.3	6.3	6.3		COc1cc(CCc2ccc3c(c2)OCO3)cc(OC)c1OC	6.3
15	15	15		COc1ccc(CCc2cc(OC)c(OC)c(OC)c2)cc1OC	15
5.9	5.9	5.9		COc1cc(CC2(c3ccc4c(c3)OCO4)SCCCS2)cc(OC)c1OC	4.7
> 41.2	> 41.2	41.2		Oc1ccc(CCc2ccc3c(c2)OCO3)cc1	> 41.2
			20	c1ccc2cc(C3SCCCS3)ccc2c1	
> 30	> 30	30		COc1cc(C(=O)Cc2cc(OC)c(OC)c(OC)c2)ccc1O	> 30
5.8	5.8	5.8		COc1cc(CC2(c3ccc4ccccc4c3)SCCCS2)cc(OC)c1OC	11.7
> 28.7	> 28.7	28.7		COc1ccc(C(O)Cc2cc(OC)c(OC)c(OC)c2)cc1OC (centres undefined)	> 28.7
14.8	29.7	14.8		COc1cc(CC(=O)c2ccc3ccccc3c2)cc(OC)c1OC	14.8
22.9	22.9	22.9		COc1ccc(C2(Cc3cc(OC)c(OC)c(OC)c3)SCCCS2)cc1OC	> 22.9
0.3	0.3	0.3		COc1cc(CCc2ccc3ccccc3c2)cc(OC)c1OC	0.3

Compound	IC50 (A549) [µM]	IC50 (HT-29) [µM]	IC50 (P388) [µM]	IC50 (L1210) [µM]	IC50 [1] [µM]
COc1cc([C@@H]2c3cc4c(cc3[C@H](O)[C@H]3COC(=O)[C@H]23)OCO4)cc(OC)c1OC [PODOFILOX]	0.05	0.05	0.05		0.06
